In patent US20240360151A1 (SANOFI, priority 2023, published 2024):
Where a name gives a salt, the structure may show the parent alone.

Tests used:
NLRP3 inflammasome = molecular target: T1, NLRP3 inflammasome (Homo sapiens, UniProt Q96P20); test: IL-1β secretion assay (NLRP3 IC50) in LPS-primed, nigericin-activated THP-1 cells, HTRF; format: cell-based; details: monocytic THP-1 cells; LPS 10 ng/mL 3 h priming, then compound + nigericin 10 μM 2 h; relative IC50, 10 concentrations, geometric mean
T1 construct: endogenous in cells; host or cells: THP-1 monocytic cells
Method in brief: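 THP-1 cells primed with LPS 10 ng/mL for 3 h at 37° C., then compound (10-point 1:3 dilution, 0.1% DMSO) added with 10 μM nigericin for 2 h. Supernatant IL-1β measured by HTRF; relative IC50 from a 4-parameter logistic fit, reported as geometric mean.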

[1] = tested on: NF-kB pathway (TNF-α secretion by THP-1 cells); test: TNF-α secretion assay in LPS-stimulated THP-1 cells, Lumit immunoassay; format: cell-based, human; details: Homo sapiens, THP-1, 3 h, monocytic THP-1 cells, LPS 10 ng/mL, relative IC50, 10 concentrations, geometric mean
Method: Monocytic THP-1 cells were maintained in RPMI 1640 media (Gibco 21875)+10% FBS, (Gibco 10500)+1% penicillin/streptomycin (Gibco 15140-122). Cells were then plated at 40,000 cells per well in 384-well cell culture plates (Corning 3542) and maintained with RPMI1640 (Gibco 11835)+5% FBS, (Gibco 10500). Experimental compounds were prepared and added as described above. TNF-α secretion was triggered by the addition of 10 ng/mL LPS (invivoGen, tlrl-3pelps) and cells were incubated for 3 hours. TNF-α levels were monitored directly in the cells plate using an Lumit assay (Lumit TNFa-Human Immunoassay—Promega W6051) according to manufacturers' instructions.
Data were expressed as percentage of inhibition (I %) as compared to a maximum signal control containing no small molecule (I %=0%) according to the formula: 1%=(1−((Sample−Min))/((Max−Min)))×100, where: • Sample: Signal obtained in the presence of each compound tested, • Max: Maximum signal in the absence of compound added, • Min: Minimum or background signal obtained in the absence of activation signal.
Relative IC50 (IC50 rel) were obtained from a dose response curve with 10 concentrations. Final IC50 rels are expressed as the geometric mean.
Relative IC50 values were estimated with Biost@t-SPEED v2.4 internal software based on SAS system using the 4-parameter logistic model according to Ratkovsky and Reedy (D. A. Ratkovsky, T. J. Reedy, Choosing near-linear parameters in the four parameters logistic model radioligands and related assays. Biometrics, 42 (1986), 575-582): Y=A+C/((1+exp(−B*(log(X)−M)))), where: • A: Lower asymptote (BOTTOM), • A+C: Upper asymptote (TOP), • M: the logarithm of the concentration estimated at the inflexion point (the logarithm of the relative IC50), • B: Slope at the inflexion point of the curve.

T1 sequence (Q96P20 whole entry): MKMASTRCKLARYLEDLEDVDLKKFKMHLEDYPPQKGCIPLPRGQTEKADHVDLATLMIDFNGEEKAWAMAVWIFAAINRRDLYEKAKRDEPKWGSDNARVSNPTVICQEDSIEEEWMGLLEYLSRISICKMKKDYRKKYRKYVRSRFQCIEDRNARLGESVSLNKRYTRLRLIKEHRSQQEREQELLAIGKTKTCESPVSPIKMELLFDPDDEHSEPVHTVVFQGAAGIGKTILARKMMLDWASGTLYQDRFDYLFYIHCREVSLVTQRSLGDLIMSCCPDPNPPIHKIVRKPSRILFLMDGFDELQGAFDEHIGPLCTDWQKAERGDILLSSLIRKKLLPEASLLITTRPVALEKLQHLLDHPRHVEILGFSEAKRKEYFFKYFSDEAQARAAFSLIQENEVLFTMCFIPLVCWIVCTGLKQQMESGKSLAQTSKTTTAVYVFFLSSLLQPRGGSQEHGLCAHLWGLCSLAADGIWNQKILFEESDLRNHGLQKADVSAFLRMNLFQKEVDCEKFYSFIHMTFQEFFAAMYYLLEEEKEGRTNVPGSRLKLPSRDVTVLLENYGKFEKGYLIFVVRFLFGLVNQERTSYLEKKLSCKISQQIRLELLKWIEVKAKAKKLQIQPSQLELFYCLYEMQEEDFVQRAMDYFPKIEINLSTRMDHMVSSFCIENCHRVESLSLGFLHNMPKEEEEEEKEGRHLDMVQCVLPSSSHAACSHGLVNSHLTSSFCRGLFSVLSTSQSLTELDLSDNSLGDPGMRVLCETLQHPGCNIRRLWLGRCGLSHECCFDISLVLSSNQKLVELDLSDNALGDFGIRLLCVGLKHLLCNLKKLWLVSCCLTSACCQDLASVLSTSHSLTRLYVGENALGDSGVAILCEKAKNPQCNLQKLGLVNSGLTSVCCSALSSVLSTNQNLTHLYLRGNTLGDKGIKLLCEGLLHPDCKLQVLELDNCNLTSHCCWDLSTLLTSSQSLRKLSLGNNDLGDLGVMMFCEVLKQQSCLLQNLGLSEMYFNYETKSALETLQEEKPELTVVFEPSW

IC50 (NLRP3 inflammasome) [nM] | IC50 [1] [nM] | SMILES
271 | > 10000 | CC(=O)N1C[C@@H]2CCN(c3ccc(-c4c(C)cc(C(F)(F)F)cc4O)nn3)[C@@H]2C1 (racemic) [Example 228, 1-[rac-(3aS,6aS)-1-[6-[2-hydroxy-6-methyl-4-(trifluoromethyl)phenyl]pyridazin-3-yl]-2,3,3a,4,6,6a-hexahydropyrrolo[3,4-b]pyrrol-5-yl]ethanone]
42 | > 10000 | Cc1cc(C(F)(F)F)cc(O)c1-c1ccc(N2CC[C@H]3CNC[C@H]32)nn1 (racemic) [Example 229, 2-[6-[rac-(3aS,6aS)-3,3a,4,5,6,6a-hexahydro-2H-pyrrolo[3,4-b]pyrrol-1-yl]pyridazin-3-yl]-3-methyl-5-(trifluoromethyl)phenol]
21 | > 10000 | CCN1C[C@@H]2CCN(c3ccc(-c4c(C)cc(C(F)(F)F)cc4O)nn3)[C@@H]2C1 (racemic) [Example 243, 2-[6-[rac-(3aS,6aS)-5-ethyl-2,3,3a,4,6,6a-hexahydropyrrolo[3,4-b]pyrrol-1-yl]pyridazin-3-yl]-3-methyl-5-(trifluoromethyl)phenol]
69 | > 10000 | Cc1cc(C(F)(F)F)cc(O)c1-c1ccc(N2CC[C@H]3CNC[C@H]3C2=O)nn1 (racemic) [Example 264, rac-(3aS,7aR)-5-[6-[2-hydroxy-6-methyl-4-(trifluoromethyl)phenyl]pyridazin-3-yl]-2,3,3a,6,7,7a-hexahydro-1H-pyrrolo[3,4-c]pyridin-4-one, hydrochloride]
314 | > 10000 | Cc1cc(C(F)(F)F)cc(O)c1-c1ccc(N2CC[C@H]3CN(C)C[C@H]32)nn1 (racemic) [Example 265, 2-[6-[rac-(3aS,6aS)-5-methyl-2,3,3a,4,6,6a-hexahydropyrrolo[3,4-b]pyrrol-1-yl]pyridazin-3-yl]-3-methyl-5-(trifluoromethyl)phenol]
404 | > 10000 | Cc1cc(C(F)(F)F)cc(O)c1-c1ccc(N2CC[C@H]3CNC[C@@H]3C2=O)nn1 (racemic) [Example 269, rac-(3aS,7aS)-5-[6-[2-hydroxy-6-methyl-4-(trifluoromethyl)phenyl]pyridazin-3-yl]-2,3,3a,6,7,7a-hexahydro-1H-pyrrolo[3,4-c]pyridin-4-one, hydrochloride]
0.4 | > 10000 | Cc1cc(N2CC[C@@H]3CCN(C)C[C@@H]32)nnc1-c1ccc(C(F)(F)F)cc1O (racemic) [Example 340, 2-[4-methyl-6-[rac-(3aS,7aR)-6-methyl-3,3a,4,5,7,7a-hexahydro-2H-pyrrolo[2,3-c]pyridin-1-yl]pyridazin-3-yl]-5-(trifluoromethyl)phenol]
1 | > 10000 | Cc1ccc(-c2nnc(N3CC[C@@H]4CCN(C)C[C@@H]43)cc2C)c(O)c1 (racemic) [Example 341, 5-methyl-2-[4-methyl-6-[rac-(3aS,7aR)-6-methyl-3,3a,4,5,7,7a-hexahydro-2H-pyrrolo[2,3-c]pyridin-1-yl]pyridazin-3-yl]phenol]
2 | > 10000 | Cc1cc(C)c(-c2ccc(N3CC[C@@H]4CCN(C)C[C@@H]43)nn2)c(O)c1 (racemic) [Example 342, 3,5-dimethyl-2-[6-[rac-(3aS,7aR)-6-methyl-3,3a,4,5,7,7a-hexahydro-2H-pyrrolo[2,3-c]pyridin-1-yl]pyridazin-3-yl]phenol]
8 | > 10000 | CCN1C[C@@H]2OCCN(c3ccc(-c4c(C)cc(C(F)(F)F)cc4O)nn3)[C@@H]2C1 (racemic) [Example 361, 3-methyl-2-[6-[rac-(4aR,7aS)-6-ethyl-2,3,4a,5,7,7a-hexahydropyrrolo[3,4-b][1,4]oxazin-4-yl]pyridazin-3-yl]-5-(trifluoromethyl)phenol]
1 | > 10000 | Cc1cc(C(F)(F)F)cc(O)c1-c1ccc(N2CC[C@@H]3CCN(C)C[C@@H]32)nn1 (racemic) [Example 371, 2-[6-[rac-(3aS,7aR)-6-methyl-3,3a,4,5,7,7a-hexahydro-2H-pyrrolo[2,3-c]pyridin-1-yl]pyridazin-3-yl]-3-methyl-5-(trifluoromethyl)phenol]
1 | > 10000 | CCN1CC[C@H]2CCN(c3ccc(-c4c(C)cc(C(F)(F)F)cc4O)nn3)[C@H]2C1 (racemic) [Example 378, 2-[6-[rac-(3aS,7aR)-6-ethyl-3,3a,4,5,7,7a-hexahydro-2H-pyrrolo[2,3-c]pyridin-1-yl]pyridazin-3-yl]-3-methyl-5-(trifluoromethyl)phenol]
1 | > 10000 | CCc1cccc(O)c1-c1ccc(N2CC[C@@H]3CCN(C)C[C@@H]32)nn1 (racemic) [Example 388, 3-ethyl-2-[6-[rac-(3aS,7aR)-6-methyl-3,3a,4,5,7,7a-hexahydro-2H-pyrrolo[2,3-c]pyridin-1-yl]pyridazin-3-yl]phenol]
2 | > 10000 | CN1CC[C@H]2CCN(c3ccc(-c4c(O)cccc4C(F)(F)F)nn3)[C@H]2C1 (racemic) [Example 389, 2-[6-[rac-(3aS,7aR)-6-methyl-3,3a,4,5,7,7a-hexahydro-2H-pyrrolo[2,3-c]pyridin-1-yl]pyridazin-3-yl]-3-(trifluoromethyl)phenol]
178 | > 10000 | Cc1cc(C)c(-c2ccc(N3CCO[C@H]4CCN(C5CCC5)C[C@H]43)nn2)c(O)c1 (single isomer, unassigned) [Example 10]
3 | > 10000 | Cc1cc(C)c(-c2ccc(N3CCO[C@@H]4CCN(C5CCC5)C[C@@H]43)nn2)c(O)c1 (single isomer, unassigned) [Example 11]
171 | > 10000 | Cc1cc(C(F)(F)F)cc(O)c1-c1ccc(N2CCO[C@H]3CCN(C4CCC4)C[C@H]32)nn1 (single isomer, unassigned) [Example 12]
2 | > 10000 | Cc1cc(C(F)(F)F)cc(O)c1-c1ccc(N2CCO[C@@H]3CCN(C4CCC4)C[C@@H]32)nn1 (single isomer, unassigned) [Example 13]
275 | > 10000 | Cc1cc(C(F)(F)F)cc(O)c1-c1ccc(N2CCOC(C(C)(C)O)C2)nn1 (single isomer, unassigned) [Example 53, 2-[6-[2-(1-hydroxy-1-methyl-ethyl)morpholin-4-yl]pyridazin-3-yl]-3-methyl-5-(trifluoromethyl)phenol]
203 | > 10000 | Cc1cc(C(F)(F)F)cc(O)c1-c1ccc(N2CCO[C@H](CN(C)C)C2)nn1 (single isomer, unassigned) [Example 59, 2-[6-[-2-[(dimethylamino)methyl]morpholin-4-yl]pyridazin-3-yl]-3-methyl-5-(trifluoromethyl)phenol]

SMILES | IC50 (NLRP3 inflammasome) [nM] | IC50 [1] [nM]
Cc1cccc(O)c1-c1ccc(N2CC[C@@H]3CCN(C)C[C@@H]32)nn1 (racemic) [Example 385, 3-methyl-2-[6-[rac-(3aS,7aR)-6-methyl-3,3a,4,5,7,7a-hexahydro-2H-pyrrolo[2,3-c]pyridin-1-yl]pyridazin-3-yl]phenol] | 2 | > 10000
